Test systems include KM20L2 colon; A549 NSCLC; NCI-H226 lung; SF-268 CNS; A498 renal; SK-MEL-5 melanoma; LXFL 529 NSCLC; COLO 205 colon; HS 578T breast; HCC-2998 colon.
Holding throughout (experiment): NCI anticancer screen, dose series, 48 h

Data on eleven molecules can be found in PubChem BioAssay (NCI).

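Five compound concentrations were applied to cells in 96-well plates for 48 hours; endpoints were derived by simple linear interpolation of the resulting dose-response curve. Abbreviation: GI50, concentration required for 50% inhibition of growth. TGI marks complete inhibition of growth.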

Turning to `CNC(=O)/C(=C/c1ccc(OC)cc1)c1cc(OC)c(OC)c(OC)c1`, the TGI was 2.72 µM in the test on KM20L2 colon; greater than 100 µM in the test on A549 NSCLC; greater than 53.7 µM in the test with NCI-H226 lung; greater than 84.7 µM with SF-268 CNS; greater than 43.4 µM in the test on A498 renal; greater than 36.6 µM in the test on SK-MEL-5 melanoma. For the same molecule, the TGI with LXFL 529 NSCLC was greater than 100 µM; with COLO 205 colon, 7.36 µM; in the test with HS 578T breast, 5.71 µM; in the test with HCC-2998 colon, 17.7 µM.

With `Cc1cc(Cl)ccc1N1C(=O)C(=O)C(c2nc3ccccc3o2)C(=O)C1=O`, the TGI in the test on KM20L2 colon, in the test on A549 NSCLC, in the test with NCI-H226 lung, with SF-268 CNS, in the test on A498 renal and in the test on SK-MEL-5 melanoma was greater than 100 µM in each case. In addition, the TGI in the test with LXFL 529 NSCLC, in the test with COLO 205 colon and with HCC-2998 colon was greater than 100 µM in each case.

As to `O=C1c2ccccc2C(=O)c2sc(Nc3ccc(Cl)cc3)nc21`, the TGI in the test on KM20L2 colon is 33.9 µM; in the test with A549 NSCLC it was 24.6 µM; in the test with NCI-H226 lung, 15.3 µM; in the test with SF-268 CNS, 5.52 µM; with A498 renal it was 29.7 µM; in the test on SK-MEL-5 melanoma, 3.6 µM. The TGI is 3.1 µM in the test on LXFL 529 NSCLC, 17.7 µM with COLO 205 colon, 14.1 µM with HS 578T breast and 7.43 µM in the test with HCC-2998 colon. Further, the GI50 in the test with HS 578T breast is 2.92 µM.

As to `CC1NCCc2c1[nH]c1cc(O)ccc21` (centres undefined), the TGI with KM20L2 colon, in the test on A549 NSCLC, in the test with NCI-H226 lung, with SF-268 CNS, in the test with A498 renal and with SK-MEL-5 melanoma was greater than 100 µM in each case. For the same molecule, the TGI in the test with LXFL 529 NSCLC, in the test with COLO 205 colon and in the test on HCC-2998 colon was greater than 100 µM each time.

As for `CCOC(=O)N1CCc2cc(OC)c(OC)cc2/C1=C/c1ccc(OC)c(OC)c1`, the TGI is greater than 100 µM in the test on KM20L2 colon; greater than 100 µM in the test on A549 NSCLC; greater than 100 µM in the test with NCI-H226 lung; greater than 100 µM in the test with SF-268 CNS; greater than 100 µM in the test on A498 renal; 44.4 µM in the test with SK-MEL-5 melanoma. The TGI in the test with LXFL 529 NSCLC, in the test on COLO 205 colon and in the test with HCC-2998 colon was greater than 100 µM each time.

For `NC1=NCC(c2ccccn2)C1c1ccc(F)cc1` (centres undefined), the TGI in the test with KM20L2 colon, with A549 NSCLC, with NCI-H226 lung, in the test on SF-268 CNS, with A498 renal and with SK-MEL-5 melanoma was greater than 100 µM in each case. The TGI in the test with LXFL 529 NSCLC, in the test on COLO 205 colon and in the test on HCC-2998 colon was greater than 100 µM in each case.

In the case of `Cc1[nH]c(=O)nc(N/N=C/c2ccc(Cl)cc2)c1C(=O)Nc1ccc(Cl)cc1`, the TGI in the test on KM20L2 colon was greater than 100 µM; in the test on A549 NSCLC, greater than 63.1 µM; in the test on NCI-H226 lung, greater than 100 µM; with SF-268 CNS it was greater than 100 µM; with A498 renal, 57.2 µM; in the test with SK-MEL-5 melanoma, 48.4 µM. The TGI with LXFL 529 NSCLC was greater than 73.3 µM; with COLO 205 colon, greater than 88.1 µM; in the test with HS 578T breast, greater than 100 µM; with HCC-2998 colon it was greater than 100 µM.

With `COC1C(O)CC(OC2CC(OC3CC(O[C@@H]4C(=O)c5c(cc6cc(OC7CC(OC8CC(O)C(O)C(C)O8)C(O)C(C)O7)c(C)c(O)c6c5O)C[C@H]4[C@H](OC)C(=O)[C@@H](O)[C@@H](C)O)OC(C)C3O)OC(C)C2O)OC1C` (some centres undefined), the TGI in the test with KM20L2 colon was 0.533 µM; in the test on A549 NSCLC it was greater than 100 µM; in the test on NCI-H226 lung, less than 0.215 µM; with SF-268 CNS it was greater than 94 µM; with A498 renal, 0.0827 µM; in the test with SK-MEL-5 melanoma it was 0.032 µM. Also, the TGI in the test on LXFL 529 NSCLC is greater than 100 µM; with COLO 205 colon, 0.0921 µM; with HCC-2998 colon, 0.114 µM. Besides, in the test with A498 renal, the GI50 was less than 0.01 µM.

Consider `O=[N+]([O-])c1ccc2nc3ccscc-3c2c1`, for which the TGI was 94.9 µM in the test with KM20L2 colon; 89.9 µM with A549 NSCLC; greater than 100 µM in the test on NCI-H226 lung; greater than 100 µM in the test on SF-268 CNS; 53.3 µM in the test with A498 renal; 33.1 µM with SK-MEL-5 melanoma. Further, the results for the TGI in the test with LXFL 529 NSCLC, in the test with COLO 205 colon and in the test on HCC-2998 colon were 27.3 µM, 34.8 µM and 34.1 µM, respectively.

As for `CC(=O)OCC1OC(n2c(=S)n(-c3ccccc3)c(=O)c3cc(Br)ccc32)C(OC(C)=O)C(OC(C)=O)C1OC(C)=O` (centres undefined), the TGI in the test with KM20L2 colon, in the test with A549 NSCLC, with NCI-H226 lung, in the test with SF-268 CNS, with A498 renal and with SK-MEL-5 melanoma was greater than 100 µM throughout. Further, the TGI with LXFL 529 NSCLC, in the test on COLO 205 colon and in the test on HCC-2998 colon was greater than 100 µM in each case.

For the molecule `O=C1[C@@H]2C(c3ccncc3)=NO[C@@H]2C(=O)N1c1ccc(Cc2ccc(N3C(=O)[C@H]4C(c5ccncc5)=NO[C@H]4C3=O)cc2)cc1`, the TGI in the test with KM20L2 colon, with A549 NSCLC, in the test on NCI-H226 lung, in the test with SF-268 CNS, in the test with A498 renal and with SK-MEL-5 melanoma was greater than 100 µM each time. For the same molecule, the TGI in the test with LXFL 529 NSCLC, in the test with COLO 205 colon and in the test with HCC-2998 colon was greater than 100 µM throughout.
